Reference: patent US8163724B2, “Glucocorticosteroids, processes for their preparation, pharmaceutical compositions containing them and their use in therapy” (AstraZeneca AB, priority 2007, dated 2012)

molecular target: T1, recombinant human GR (Homo sapiens, UniProt P04150); test: Human Glucocorticoid Receptor (GR) Assay (fluorescence polarization, Panvera/Invitrogen kit); format: binding; conditions: fluorescence polarization; GS Red tracer; 2 hours at room temperature; 100% control 10 μM Dexamethasone; read-out: Inhibition of GR binding, IC50
T1 construct: purchased Panvera/Invitrogen P2812 (kit P2893)
T1 sequence (P04150 1-777): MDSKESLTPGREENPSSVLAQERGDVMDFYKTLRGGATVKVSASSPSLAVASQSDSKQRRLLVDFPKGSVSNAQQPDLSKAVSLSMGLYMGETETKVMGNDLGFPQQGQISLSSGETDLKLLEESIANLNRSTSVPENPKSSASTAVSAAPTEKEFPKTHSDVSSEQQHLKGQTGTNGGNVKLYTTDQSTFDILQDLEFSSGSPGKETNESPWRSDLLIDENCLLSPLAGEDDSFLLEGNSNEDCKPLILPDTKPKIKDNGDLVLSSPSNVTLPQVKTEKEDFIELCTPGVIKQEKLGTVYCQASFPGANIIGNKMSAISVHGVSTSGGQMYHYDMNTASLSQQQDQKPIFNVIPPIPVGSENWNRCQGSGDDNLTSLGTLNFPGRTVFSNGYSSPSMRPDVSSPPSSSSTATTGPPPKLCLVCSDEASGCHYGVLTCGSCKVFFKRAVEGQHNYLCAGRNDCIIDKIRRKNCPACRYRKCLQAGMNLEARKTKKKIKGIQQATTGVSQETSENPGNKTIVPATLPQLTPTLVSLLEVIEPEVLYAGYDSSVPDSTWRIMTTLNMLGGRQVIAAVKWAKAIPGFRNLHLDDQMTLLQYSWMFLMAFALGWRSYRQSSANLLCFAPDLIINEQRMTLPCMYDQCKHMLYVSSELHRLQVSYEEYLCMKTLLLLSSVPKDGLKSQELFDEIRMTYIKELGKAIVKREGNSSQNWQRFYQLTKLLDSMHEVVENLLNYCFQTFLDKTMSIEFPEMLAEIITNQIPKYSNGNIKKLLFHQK
Outline: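 Fluorescence polarization competition with recombinant GR and GS Red fluorescent ligand plus stabilizing peptide and DTT in potassium phosphate/sodium molybdate/EDTA buffer with DMSO. Incubated 2 hours at room temperature in the dark; 0% control DMSO, 100% control 10 μM dexamethasone.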

For `COCSC(=O)[C@@]1(OC(=O)c2cocn2)CC[C@H]2[C@@H]3CCC4=Cc5c(cnn5-c5ccc(F)nc5)C[C@]4(C)[C@H]3[C@@H](O)C[C@@]21C` [Example 163, (1R,3aS,3bS,10aR,10bS,11S,12aS)-7-(6-Fluoropyridin-3-yl)-11-hydroxy-1-{[(methoxymethyl)sulfanyl]carbonyl}-10a,12a-dimethyl-1,2,3,3a,3b,4,5,7,10,10a,10b,11,12,12a-tetradecahydrocyclopenta[5,6]naphtho[1,2-f]indazol-1-yl 1,3-oxazole-4-carboxylate], which IC50 is on record?
The IC50 was 1.7 nM.

How did the IC50 turn out when `C[C@]12Cc3cnn(-c4ccc(F)nc4)c3C=C1CC[C@@H]1[C@@H]2[C@@H](O)C[C@@]2(C)[C@H]1CC[C@]2(O)C(=O)SCC#N` [Example 164, S-(Cyanomethyl)(1R,3aS,3bS,10aR,10bS,11S,12aS)-7-(6-fluoropyridin-3-yl)-1,11-dihydroxy-10a,12a-dimethyl-1,2,3,3a,3b,4,5,7,10,10a,10b,11,12,12a-tetradecahydrocyclopenta[5,6]naphtho[1,2-f]indazole-1-carbothioate] was run?
Its IC50 is 1.4 nM.

`CSC(=O)[C@@]1(O)CC[C@H]2[C@@H]3CCC4=Cc5c(cnn5-c5ccc(F)nc5)C[C@]4(C)[C@H]3[C@@H](O)C[C@@]21C` [Example 165, S-Methyl(1R,3aS,3bS,10aR,10bS,11S,12aS)-7-(6-fluoropyridin-3-yl)-1,11-dihydroxy-10a,12a-dimethyl-1,2,3,3a,3b,4,5,7,10,10a,10b,11,12,12a-tetradecahydrocyclopenta[5,6]naphtho[1,2-f]indazole-1-carbothioate] was tested. Which IC50 did it give?
Its IC50 is 3.8 nM.

With `C[C@]12Cc3cnn(-c4ccc(F)nc4)c3C=C1CC[C@@H]1[C@@H]2[C@@H](O)C[C@@]2(C)[C@H]1CC[C@]2(OC(=O)c1ccco1)C(=O)SCC#N` [Example 166, (1R,3aS,3bS,10aR,10bS,11S,12aS)-1-{[(Cyanomethyl)sulfanyl]carbonyl}-7-(6-fluoropyridin-3-yl)-11-hydroxy-10a,12a-dimethyl-1,2,3,3a,3b,4,5,7,10,10a,10b,11,12,12a-tetradecahydrocyclopenta[5,6]naphtho[1,2-f]indazol-1-yl furan-2-carboxylate] as the compound, how does the IC50 read?
Its IC50 is 5.8 nM.

How did the IC50 turn out when `CSC(=O)[C@@]1(OC(=O)c2ccco2)CC[C@H]2[C@@H]3CCC4=Cc5c(cnn5-c5ccc(F)nc5)C[C@]4(C)[C@H]3[C@@H](O)C[C@@]21C` [Example 167, (1R,3aS,3bS,10aR,10bS,11S,12aS)-7-(6-Fluoropyridin-3-yl)-11-hydroxy-10a,12a-dimethyl-1-[(methylsulfanyl)carbonyl]-1,2,3,3a,3b,4,5,7,10,10a,10b,11,12,12a-tetradecahydrocyclopenta[5,6]naphtho[1,2-f]indazol-1-yl furan-2-carboxylate] was run?
Its IC50 is 5.6 nM.

With `C[C@]12Cc3cnn(-c4ccc(F)nc4)c3C=C1CC[C@@H]1[C@@H]2[C@@H](O)C[C@@]2(C)[C@H]1CC[C@]2(OC(=O)c1ccco1)C(=O)SCCO` [Example 168, (1R,3aS,3bS,10aR,10bS,11S,12aS)-7-(6-Fluoropyridin-3-yl)-11-hydroxy-1-{[(2-hydroxyethyl)sulfanyl]carbonyl}-10a,12a-dimethyl-1,2,3,3a,3b,4,5,7,10,10a,10b,11,12,12a-tetradecahydrocyclopenta[5,6]naphtho[1,2-f]indazol-1-yl furan-2-carboxylate] as the compound, how does the IC50 read?
The IC50 was 5.3 nM.

With `CCC(=O)O[C@]1(C(=O)SCC#N)CC[C@H]2[C@@H]3CCC4=Cc5c(cnn5-c5ccc(F)c(C(=O)SCC#N)c5)C[C@]4(C)[C@H]3[C@@H](O)C[C@@]21C` [Example 174, (1R,3aS,3bS,10aR,10bS,11S,12aS)-1-{[(Cyanomethyl)sulfanyl]carbonyl}-7-(3-{[(cyanomethyl)sulfanyl]carbonyl}-4-fluorophenyl)-11-hydroxy-10a,12a-dimethyl-1,2,3,3a,3b,4,5,7,10,10a,10,12,12a-tetradecahydrocyclopenta[5,6]naphtho[1,2-f]indazol-1-yl propanoate] as the compound, how does the IC50 read?
The IC50 was 34 nM.

How did the IC50 turn out when `CCC(=O)O[C@]1(C(=O)SC)CC[C@H]2[C@@H]3CCC4=Cc5c(cnn5-c5ccc(F)c(C(=O)SC)c5)C[C@]4(C)[C@H]3[C@@H](O)C[C@@]21C` [Example 175, (1R,3aS,3bS,10aR,10bS,11S,12aS)-7-{4-Fluoro-3-[(methylsulfanyl)carbonyl]phenyl}-11-hydroxy-10a,12a-dimethyl-1-[(methylsulfanyl)carbonyl]-1,2,3,3a,3b,4,5,7,10,10a,10b,11,12,12a-tetradecahydrocyclopenta[5,6]naphtho[1,2-f]indazol-1-yl propanoate] was run?
Its IC50 is 18 nM.

How did the IC50 turn out when `Cn1cccc1C(=O)O[C@]1(C(=O)SCC#N)CC[C@H]2[C@@H]3CCC4=Cc5c(cnn5-c5ccc(F)cc5)C[C@]4(C)[C@H]3[C@@H](O)C[C@@]21C` [Example 176, (1R,3aS,3bS,10aR,10bS,11S,12aS)-1-{[(Cyanomethyl)thio]carbonyl}-7-(4-fluorophenyl)-11-hydroxy-10a,12a-dimethyl-1,2,3,3a,3b,4,5,7,10,10a,10b,11,12,12a-tetradecahydrocyclopenta[5,6]naphtho[1,2-f]indazol-1-yl 1-methyl-1H-pyrrole-2-carboxylate] was run?
Its IC50 is 11 nM.

`Cn1cccc1C(=O)O[C@]1(C(=O)SCF)CC[C@H]2[C@@H]3CCC4=Cc5c(cnn5-c5ccc(F)cc5)C[C@]4(C)[C@H]3[C@@H](O)C[C@@]21C` [Example 177, (1R,3aS,3bS,10aR,10bS,11S,12aS)-1-{[(Fluoromethyl)thio]carbonyl}-7-(4-fluorophenyl)-11-hydroxy-10a,12a-dimethyl-1,2,3,3a,3b,4,5,7,10,10a,10b,11,12,12a-tetradecahydrocyclopenta[5,6]naphtho[1,2-f]indazol-1-yl 1-methyl-1H-pyrrole-2-carboxylate] was tested. Which IC50 did it give?
The IC50 was 7.5 nM.

With `Cn1cccc1C(=O)O[C@]1(C(=O)SCCO)CC[C@H]2[C@@H]3CCC4=Cc5c(cnn5-c5ccc(F)cc5)C[C@]4(C)[C@H]3[C@@H](O)C[C@@]21C` [Example 178, (1R,3aS,3bS,10aR,10bS,11S,12aS)-7-(4-Fluorophenyl)-11-hydroxy-1-{[(2-hydroxyethyl)thio]carbonyl}-10a,12a-dimethyl-1,2,3,3a,3b,4,5,7,10a,10b,11,12,12a-tetradecahydrocyclopenta[5,6]naphtho[1,2]-indazol-1-yl 1-methyl-1H-pyrrole-2-carboxylate] as the compound, how does the IC50 read?
Its IC50 is 7.6 nM.

For `C[C@]12Cc3cnn(-c4ccnnc4)c3C=C1CC[C@@H]1[C@@H]2[C@@H](O)C[C@@]2(C)[C@H]1CC[C@]2(OC(=O)C1CC1)C(=O)OCC#N` [Example 184, Cyanomethyl(1R,3aS,3bS,10aR,10bS,11S,12aS)-1-[(cyclopropylcarbonyl)oxy]-11-hydroxy-10a,12a-dimethyl-7-pyridazin-4-yl-1,2,3,3a,3b,4,5,7,10,10a,10b,11,12,12a-tetradecahydrocyclopenta[5,6]naphtho[1,2-f]indazole-1-carboxylate], which IC50 is on record?
Its IC50 is 1.7 nM.

Which IC50 does the source give for `C[C@]12Cc3cnn(-c4ccc(F)nc4)c3C=C1CC[C@@H]1[C@@H]2[C@@H](O)C[C@@]2(C)[C@H]1CC[C@]2(OC(=O)[C@H]1CCCO1)C(=O)SCC#N` [Example 185, (1R,3aS,3bS,10aR,10bS,11S,12aS)-1-{[(Cyanomethyl)sulfanyl]carbonyl}-7-(6-fluoropyridin-3-yl)-11-hydroxy-10a,12a-dimethyl-1,2,3,3a,3b,4,5,7,10,10a,10b,11,12,12a-tetradecahydrocyclopenta[5,6]naphtho[1,2-f]indazol-1-yl (2R)-tetrahydrofuran-2-carboxylate] here?
Its IC50 is 2.7 nM.

How did the IC50 turn out when `C[C@]12Cc3cnn(-c4ccc(F)nc4)c3C=C1CC[C@@H]1[C@@H]2[C@@H](O)C[C@@]2(C)[C@H]1CC[C@]2(OC(=O)[C@H]1CCCO1)C(=O)SCCO` [Example 186, (1R,3aS,3bS,10aR,10bS,11S,12aS)-7-(6-Fluoropyridin-3-yl)-11-hydroxy-1-{[(2-hydroxyethyl)sulfanyl]carbonyl}-10a,12a-dimethyl-1,2,3,3a,3b,4,5,7,10,10a,10b,11,12,12a-tetradecahydrocyclopenta[5,6]naphtho[1,2-f]indazol-1-yl (2R)-tetrahydrofuran-2-carboxylate] was run?
The IC50 was 2.3 nM.

For `C[C@]12Cc3cnn(-c4ccc(F)nc4)c3C=C1CC[C@@H]1[C@@H]2[C@@H](O)C[C@@]2(C)[C@H]1CC[C@]2(OC(=O)[C@H]1CCCO1)C(=O)SCF` [Example 187, (1R,3aS,3bS,10aR,10bS,11S,12aS)-1-{[(Fluoromethyl)sulfanyl]carbonyl}-7-(6-fluoropyridin-3-yl)-11-hydroxy-10a,12a-dimethyl-1,2,3,3a,3b,4,5,10,10a,10b,11,12,12a-tetradecahydrocyclopenta[5,6]naphtho[1,2-f]indazol-1-yl (2R)-tetrahydrofuran-2-carboxylate], which IC50 is on record?
Its IC50 is 2.3 nM.
